# From patent US9150608B2, “Neuro-protective compounds and their use” (Biotechnology Research Corp. Ltd., priority 2010, dated 2015)
# Tests used:
# [1] = system: Aβ25-35-treated primary cortical neurons; test: Cortical neuron survival assay with amyloid-beta peptide insult (MTT); type: cell-based, rat; conditions: for cell survival of cortical neurons treated with Aβ25-35 (MTT): 50 μM, except GAG-C69 at 30 μM, Aβ25-35 10 μM (FIG. 19)
# Procedure: FIG. 4. […] After overnight incubation, the MTT assay was performed. Cell survival was calculated as a percentage compared to vehicle control (“CTL no Abeta”).
# Exogenous addition of amyloid beta peptide (Aβ) initiates cell death of neuronal cultures via apoptosis.
# The cells were then incubated with test samples and amyloid-beta peptide fragment 25-35 (Aβ, 10 μM, Sigma) in growth medium. A tetrazole, 3-(4,5-Dimethylthiazol-2-yl)-2,5-diphenyltetrazolium bromide (MTT, 5 mg/ml) was added to the medium at a ratio of 1:10 after 24-hr incubation. MTT is reduced by living cells into purple formazan and further solubilized in 20% SDS solution; therefore, the colored solution was measured by spectrophotometer and cell viability was quantified.
# cleaved-caspase-3 = test: Caspase-3 expression in cortical neurons in the presence of amyloid-beta peptide (Western blot); type: cell-based, rat; conditions: 10-50 μg/mL in the presence of Aβ25-35 (10 μM), overnight
# Procedure: FIG. 5. Adelostemma gracillimum refined fraction inhibits caspase-3 production in primary cortical neurons induced by Aβ. Primary cortical neuron cultures (7DIV) were treated with various concentrations of AG-0 (10-50 μg/mL) in the presence of Aβ25-35 (10 μM). Proteins were extracted after overnight incubation and Western blot analysis was performed. Blots were probed with antibodies against caspase-3 and ERK protein. Staurosporine (STS, 10 μM) was used as a positive control, while DMSO served as the vehicle control.
# The cells were then incubated with test samples and amyloid-beta peptide fragment 25-35 (Aβ, 10 uM, Sigma) in growth medium.
# [2] = system: cyclic AMP response (CRE) element; test: CRE-dependent transcription assay (luciferase); type: cell-based, rat; conditions: hippocampal neurons 12DIV, 50 μM, 6 hours
# Procedure: FIG. 41. GAG compounds enhance CRE-dependent transcription activity. GAG-C14 (a), GAG-C53 (b), GAG-C63 (c), GAG-C69 (d), GAG-C84 (e), GAG-C111 (f), GAG-C122 (g), GAG-C123 (h), and GAG-C129 (i) induce CRE-dependent transcriptional activity in cultured hippocampal neurons. On the day of cell seeding, hippocampal neurons were transfected with a firefly luciferase reporter plasmid containing cyclic AMP response (CRE)-element. The cells at 12 DIV were then treated with 50 μM of AG compounds for 6 hours. Data are mean±SEM (n=3-4), *=P<0.05, **=P<0.01, and ***=P<0.005 versus vehicle-treated cells (0 μM), student's t test.
# Cultured hippocampal neurons were transfected with a firefly luciferase reporter plasmid containing a cyclic AMP response (CRE) element. At 12DIV, the cells were treated with 50 μM of compound for 6 hours, then CRE-dependent transcription activity was assayed by measuring luciferase levels.
# Freshly isolated embryonic cortical neurons were transfected with a luciferase reporter gene (Cre-Luc) linked to CREB activation following the ACM lipofectamine method using Lipofectamine 2000, a cationic liposome based reagent (Invitrogen). […] Transfection was performed using 1 μL Lipofectamine 2000 and 0.4 μg DNA per well. Neurons were then treated with test samples for time periods of 6 hours. After treatment, the cells were washed with ice-cold DPBS and 100 μL of 1× luciferase lysis buffer (Promega) was added. The plates were placed in −20° C. to freeze the cells, after which they were thawed to facilitate lysis. The lysates were transferred onto white bottom plates and assayed for renilla luciferase using the luciferase assay kit (Promega). Increased CREB activation in the neurons leads to an enhanced luciferase production and this was quantified using a Promega GloMax™ 96 microplate luminometer. […] BDNF and rolipram were used as positive controls.
# [3] = system: glutamate-induced excitotoxicity in cortical neurons; test: Glutamate survival assay (LDH release); type: cell-based, rat; conditions: 30 μM; glutamate 10-200 μM, all concentrations examined
# Procedure: FIG. 34. GAG-C73 decreases primary neuron cell death induced by high doses of glutamate. Cortical neurons were incubated with GAG-C73 (30 μM) or DMSO control for 2 hrs, followed by co-treatment with differing concentrations of glutamate (10-200 μM) for 20 min. LDH release into the medium was then measured.
# Glutamate is the physiological neurotransmitter that activates NMDA receptors. However, excess amounts of glutamate can result in excitotoxicity and potential cell death. Survival assays were conducted to determine the ability of GAG-C73 to effectively protect neuronal cells from glutamate-induced excitotoxicity.
# [4] = system: phosphorylated ERK, CREB, Akt, P38, MEK in cortical neurons; test: Western blot detection of signaling proteins in cortical neurons; type: cell-based, rat; conditions: cortical neurons 7DIV, 0.1-10 μM, 15 min (FIGS. 16, 18, 20)
# NMDA receptor = test: Whole-cell patch clamp; type: cell-based, rat; conditions: hippocampal neurons, −70 mV
# Procedure: FIG. 31. GAG-C73 inhibits NMDA-induced current in hippocampal neurons. The effects of GAG-C73 on NMDA-activated currents in rat hippocampal neurons (11DIV) were examined using whole-cell patch clamp studies. Addition of NMDA induced depolarization and initiated an inward current in pyramidal cells. A. Examples of NMDA-activated currents before, during, and after application of GAG-C73 (30 μM) are shown. Horizontal bars denote GAG-C73 application. B-C. […] DMSO was used as a solvent control. The concentration of glycine was 0.1 μM, and membrane potential was held at −70 mV. n=10; three independent experiments were performed. *=P<0.05.
# The NMDA receptor is a gated ion channel, which allows inflow of current during a nerve impulse. Antagonists to the receptor would prevent the inflow of current.
# Hippocampal neurons were plated onto PDL-coated 35 mm dishes (NUNC) at a density of 3×10^5 cells per plate. Half of the medium was changed with NB, B27 and […] L-glutamine every 2 to 3 days. On day 12 in vitro (12DIV), whole-cell patch clamp study was performed. […] Holding potential of patched cells was kept at −70 mV and currents were recorded using Axopatch-200B amplifier (Axon Instruments, USA). […] Data was analyzed by pClamp9 software and percentage of inhibition on NMDA-induced current was' represented in comparison to a DMSO solvent control.
# [5] = system: NMDA receptor-induced excitotoxicity in primary cortical neuronal cells; test: NMDA survival assay (LDH release)
# Procedure: Embryonic rat cortical neurons (11 DIV) were pre-treated with various concentrations of AG—0 (0.1 -30 μg/mL) and then co-incubated with NMDA (20 μM). After 20 min, the medium was replaced with fresh medium, and after overnight incubation lactate dehydrogenase (LDH) released into the medium was measured. Cell death was calculated as a percentage compared to solvent control (“CTL without NMDA”). Assays were conducted in duplicate and repeated at least twice. *=P<0.05.
# Cortical neurons were plated on 48-well plate (Nunc) at a density of 1.1×10^5 cells per well and cultured for 11-12 days (11-12 DIV). Neurons were pre-treated with the test compounds for 2 hours prior to N-Methyl-D-Aspartate (NMDA, Sigma) or glutamate (MSG, Sigma) treatment. Briefly, the neurons were rinsed with Locke's solution (5 mM potassium chloride, 128 mM sodium chloride, 2.7 mM calcium chloride, 1 mM di-sodium hydrogen orthophosphate, 5 mM HEPES and 10 mM glucose in Milli-Q water) without Mg^2+, followed by incubation in Locke's solution with addition of glycine (0.1 μM) for 15 minutes. After the incubation, the neurons were co-treated with the test compound (dissolved in Locke's plus glycine solution) and NMDA (20 μM) or glutamate for 20 min. Neurons were then rinsed with Locke's solution containing Mg^2+ and replaced with fresh growth medium. Cell death was assayed and quantified using the lactate dehydrogenase release assay (Cytotoxicity Detection Kit, Roche). Data was compared to a DMSO vehicle control and represented in mean±SEM. The student t-test was used for statistical analysis.
CRE-dependent transcription activity (luciferase) [2],Compound,cell survival of cortical neurons treated with Aβ25-35 (MTT) [1],"survival of neurons against Aβ insult (MTT) ([1]; various concentrations, Aβ25-35 10 μM)","expression level of cleaved-caspase-3 (17 kDa, active form) (cleaved-caspase-3)",cell death compared to the DMSO control (LDH) [3],ERK phosphorylation [4],NMDA-induced current (peak and plateau) (NMDA receptor; 30 μM co-treatment with NMDA),NMDA-induced current with increasing doses (NMDA receptor),"cell death compared to the DMSO control (LDH) ([5]; 30 μM, NMDA 5-100 μM, at toxic dosages of NMDA)","neuronal survival following NMDA treatment (LDH) ([5]; 30-50 μM pre-treated 2 hours, NMDA 20 min (FIG. 17))","cell death compared to the DMSO control (LDH) ([5]; varying concentrations pre-treated 2 hrs, NMDA 20 μM)"
enhances CRE-dependent transcription,"C/C=C/c1ccc2c(c1)OC(c1ccc(O)c(OC)c1)C(C)O2 (stereo not drawn) [GAG-C69, 3-methoxyl-4-hydroxyl-(7′-E)-5′7-epoxy-8,4′-oxyneolignane-7′ en]",promoted cell survival,increases the survival of neurons against Aβ insult comparable to control levels,significantly decreased to levels comparable to that without Aβ,,,,,,,
,"C=C(C)[C@@H]1CCC2(C(=O)O)CC[C@]3(C)C(=CCC4[C@@]5(C)CCC(O)[C@@](C)(CO)C5CC[C@]43C)C12 (stereo partly drawn) [GAG-C73, 3,23-dihydroxyl-12(13)-en-Lup-20(29)-en-28-oic acid]",promoted cell survival,,,significant reduction in cell death,induced ERK phosphorylation,"reduced the current induced by NMDA, for both peak and plateau currents",further decreased the NMDA-induced current,significant reduction in cell death,promoted neuronal survival,significant dose-dependent reduction in cell death
